Assay results reported in patent US7666842B2, “Elastin peptide analogs and uses thereof” (Connective Tissue Imagineering, LLC, priority 1998, dated 2010).
Ends that are not written are not given here.

Columns and labels:
human keratinocytes [1] = experiment: Viability of human keratinocytes (MTT); type: cell-based; conditions: 10^−4 M to 10^−8 M
Description: Human keratinocytes were obtained from surgical items and were cultivated in a monolayer until preconfluence. The 7α-hydroxy-DHEA was administered to these cultures at various concentrations in ethanolic solution (10%), each concentration being tested eight times. Controls were carried out with ethanol alone (10%). After twenty-four hours, the viability of the keratinocytes was measured by testing with MTT (3-(4,5-dimethylthiazol-2-yl)-2,5 diphenyl tetrazolium bromide) where the mitochondrial dehydrogenase succinate converts the MTT into blue crystals of formazan soluble in DMSO (Mosmann, J. Immunol. Methods 65: 55-63, 1983). The cellular viability is calculated according to the formula: % viability=DO540 product×100/DO540 control.
A value greater than 100 indicates a product that encourages cellular viability.

human fibroblasts = experiment: Proliferation of human fibroblasts in culture (cell count); type: cell-based; conditions: 72 hours of contact, control 190,667 ± 6,766
Description: Cultures of human fibroblasts (from a person) were seeded on twenty-four site plates at the rate of 50,000 cells per site in a standard culture medium (DMEM, gentamycine, amphotericine B, penicillin, L-glutamine, 10% SVF). The tests were carried out on four series of three sites. After twenty-four hours, the fibroblasts adhered to the support and three series were treated with 7α-hydroxy-DHEA at concentrations of 10^−6 M, 5×10^−6 M and 10^−7 M. The fourth series only contained the vector (ethanol). The media were renewed daily, and at ninety-six hours (seventy-two hours of test contact with the 7α-hydroxy-DHEA), the fibroblasts were counted on a Malassez cell in the presence of blue trypan.

human keratinocytes [2] = experiment: Anti-radical effect on UVA-irradiated human keratinocytes (lipoid peroxides, chemiluminescence); type: cell-based; conditions: 10^−6 M
Excerpt: Keratinocytes from a healthy donor were cultivated to the subconfluent stage in a specific medium (KGM) for the proliferation of keratinocytes. The suspensions obtained were split up, in triplicate, into four series, of which three were irradiated for thirty minutes with a lamp emitting UVA so as to speed up the production of free radicals. Among the three irradiated series, one contained Vitamins C and E (0.7%) and was used as a protection reference; one contained 7α-hydroxy-DHEA at 10^−6 M and the last served as a control.
The free radicals produced generated lipoid peroxides which are measured by chemiluminescence (Belghmi et al. J Biolum. Chemilum. 2: 113-119, 1982). The effectiveness of the 7α-hydroxy-DHEA was calculated on the basis of non-irradiated controls and the protection reference.

RFL-6 cells [3] = experiment: Tritiated thymidine incorporation in RFL-6 cells; conditions: synthetic peptides, 24 hour incubation with RFL-6 cells
Description: Synthetic peptides were tested for their ability to stimulate incorporation of tritiated thymidine with a 24 hour incubation with RFL-6 cells.

RFL-6 cells [4] = experiment: BrdUTP incorporation assay (mRNA, green fluorescence) in RFL-6 cells; type: cell-based; conditions: sub-fractions of Fraction #3 (HPLC peaks at 215 nm); Blank (Background) 30
Description: A study was performed to determine whether different peptides had different activities in promoting skin health. Elastin protein was partially digested with thermolysin and the resulting peptides (i.e., SEQ ID 1-SEQ ID 41) were applied to an HPLC column. Five fractions containing clusters of peptides were collected from the column in the 5-50 minute range. The fractions were tested for activity using a bromodeoxyuridine Triphosphate (BrdUTP) incorporation assay in RFL-6 cells. The assay measures production of mRNA involved in protein synthesis.
Fraction #3 was sub-fractionated into 10 fractions corresponding to ten major peaks identified on the HPLC (at 215 nm). Table VI below illustrates the green fluorescence intensity as a measure of increased mRNA in RFL-6 cells in response to sub-fractionated portions of Fraction #3.

rat skin = experiment: H&E histology of treated rat skin (Example 6); type: in vivo; conditions: for Outer (keratin) layer and vascularity of the inner layer: treated skin sections; for Thickness of the dermal layer of skin: vs untreated controls (both shaven and unshaven)
Description: Rat skin was treated with 7-hydroxy DHEA and 7-hydroxy isoandrosterone. Skin cross sections were stained with hematoxylin and eosin (H&E) and examined histologically. […] The DHEA and derivatives induction of dermal thickening was reversible. A subset of experimental animals within each treatment group were left untreated for 30 days. Upon examination, treated skin sections were indistinguishable from the untreated. Concomitant toxicological studies found no significant toxicity when the compounds were used at 0.5% concentration in a suitable carrier applied twice daily (12 hour intervals) for 30 days.

[5] = In-vitro oxygen radical assay (luminol chemiluminescence, hydrogen peroxide); type: biochemical; conditions: diluted luminol pre-incubated with compound; 100 μg/ml for DHEA
Description: The ability of a compound to scavenge free radicals may implicate it as an anti-oxidizing agent. To test whether DHEA or it derivatives had the ability to capture free radicals, an in-vitro oxygen radical assay was used. The assay was run in quadruplicate to perfect the concentrations of controls as well as test the diluents (phosphate buffered saline (PBS) and DMSO) in which the DHEA and its derivatives were dissolved. The positive controls used were homocysteine and ascorbic acid (Vitamin C).

[6] = test system: skins of neonatal male Sprague-Dawley rats; experiment: Collagen content of neonatal rat skin (hydroxyproline); type: in vivo; conditions: 0.5% in carrier twice daily, 30 days; five animals per group
Description: (§1) DHEA and the derivative compounds of DHEA (the 7 hydroxy derivative and 7 hydroxy-isoandrosterone) modified the elastin and collagen contents of neonatal rat skin when applied twice daily over a 30 day period at a concentration of 0.5% in a suitable carrier.
(§2) Collagen and elastin contents were measured on dry, defatted, hair-free skin samples. Collagen contents were assessed through hydroxyproline evaluations in hydrolyzed, 0.1N hot sodium hydroxide extracts. Elastin contents were measured by HPLC evaluation of the contents of thermolysin-produced peptides in digests of the hot sodium hydroxide residue. Controls were both shaven and unshaven, the shaven receiving only the carrier twice daily.
(§3) Elastin contents were increased by all the compounds (28% for DHEA, 30% for the 7 hydroxy derivative and the 7 hydroxy-isoandrosterone). In these studies, statistical analysis of variance was significant at an alpha level of 0.01. Similar to the histological observations, these chemistries were reversible. Collagen and elastin contents returned to near normal levels after cessation of treatment for 30 days.

[7] = test system: skins of neonatal male Sprague-Dawley rats; experiment: Elastin content of neonatal rat skin (HPLC of thermolysin-produced peptides); type: in vivo; conditions: 0.5% in carrier twice daily, 30 days; five animals per group
Description: as §1, §2, §3

[8] = test system: skin of Sprague-Dawley male rats; experiment: Elastin content of rat skin after topical treatment (Example 2); type: in vivo; conditions: topical DHEA, 5% concentration, similar time period; S CONTR 1.408, US CONTR 2.291
Description: Topical treatment of Sprague-Dawley male rats with a composition including peptides (i.e., SEQ IDs 1-41) at a concentration of about 1.3% (wt/wt) of the formulation over a one month period was performed. The rats were treated topically with a 1.3% concentration (wt/wt) of the preparation of the hydrophilic elastin peptide for a period of 30 days. […] Three animals each were used to generate the data for S CONTR, US CONT, and DHEA and eleven animals were used for HEP. Three skin samples from the treated areas of each animal were taken for study, and the three results from each animal were averaged. […] The elastin content of the skin was determined by a precise assay for rat elastin developed by Sandberg, et al. (Connective Tissue Research 25:139-48, 1990) the assay portion of which is hereby incorporated herein by reference thereto. […]
An alpha level less than 0.001 for the data as determined by analysis of variance is significant because there is less than one chance in a thousand that the findings occur by chance.

skin of treated rats = experiment: Fluorescent micrographs of skin cross-sections stained with anti-fibronectin antibodies (Example 3); type: in vivo, rat; conditions: FIG. 2C DHEA topical, FIG. 2D peptide composition
Excerpt: FIGS. 2A-D are fluorescent micrographs of fixed skin cross-sections taken from rats treated as described in Example 3, and stained with fluorescein-conjugated anti-fibronectin antibodies. FIG. 2A is a representative sample from the unshaven control tissue; FIG. 2B is a representative sample from the shaven control sample; FIG. 2C is a representative sample of tissue which received DHEA topical treatment; and FIG. 2D is a representative sample of tissue which received treatment of a composition containing peptides, as described in Example 2. In each of the panels, the dermal layer of the skin is indicated by a bracket.
The capillary venules are shown in this figure as brightly stained oval bodies that lie beneath the dermal layer. The increase in the concentration of endothelial cells in the subdermal region indicates an increase in capillary density and therefore illustrates the potential for the peptides and formulations of the present invention to be used for the formation of blood vessels or capillary venules (neovascularization or angiogenesis).

## C[C@]12CC[C@H](O)CC1=C[C@@H](O)[C@@H]1[C@@H]2CC[C@]2(C)C(=O)CC[C@@H]12 [7α-hydroxy-DHEA, 3β,7α-dihydroxy-5-androstene-17-one]
Human keratinocytes [1]
  Cytotoxicity on human keratinocytes: no cytotoxicity was observed
Human fibroblasts; 5 × 10^−6 M
  Number of Fibroblasts: 258,667 ± 3,351
Human fibroblasts; 10^−6 M
  Number of Fibroblasts: 268,000 ± 27,154
Human fibroblasts; 10^−7 M
  Number of Fibroblasts: 230,667 ± 8,511
Human keratinocytes [2]; UVA irradiated 30 minutes, non irradiated 2,529 ± 153, irradiated controls 427,750 ± 137,322
  Chemiluminescence: 44,164 ± 13,303
Human keratinocytes [2]; UVA irradiated, calculated on non-irradiated controls and protection reference
  Effectiveness: 90%

## GAVVPQ--NH2 (GAVVPQ-NH2; listed as Homo sapiens) [SEQ ID 48]
RFL-6 cells [3]
  Tritiated thymidine incorporation, % CPM above the control: ~25 % CPM above the control

## Valine-Tyrosine-Proline-Glycine-Glycine [SEQ ID 24]
RFL-6 cells [4]
  % Change of Green Fluorescence Intensity: 38%

## Valine-Glycine-Proline-Alanine [SEQ ID 14]
RFL-6 cells [4]
  % Change of Green Fluorescence Intensity: 39%

## Acetyl-GAVVPQ--NH2 (Ac-GAVVPQ-NH2; listed as Homo sapiens) [SEQ ID 44]
RFL-6 cells [3]
  Tritiated thymidine incorporation, % CPM above the control: ~5 % CPM above the control

## C[C@]12CC[C@H](O)CC1=C[C@H](O)[C@@H]1[C@@H]2CC[C@]2(C)C(=O)CC[C@@H]12 [7-hydroxy DHEA]
Rat skin
  Outer (keratin) layer and vascularity of the inner layer: no change in the outer (keratin) layer nor increase of vascularity of the inner layer
  Thickness of the dermal layer of skin: thickened to nearly twice that of the untreated controls
[5]
  Reduction of luminol light emission: did not cause any reduction
[6]
  Collagen increased by: 24%
[7]
  Elastin contents increased by: 30%

## Valine-Valine-Proline-Glutamine [SEQ ID 17]
RFL-6 cells [4]
  % Change of Green Fluorescence Intensity: 85%
RFL-6 cells [3]
  Tritiated thymidine incorporation, % CPM above the control: ~28 % CPM above the control

## Valine-Valine-Proline-Glutamine-Amide [SEQ ID 42]
RFL-6 cells [3]
  Tritiated thymidine incorporation, % CPM above the control: ~1 % CPM above the control

## Leucine-Glycine-Alanine-Glycine-Glycine-Alanine-Glycine [SEQ ID 19]
RFL-6 cells [3]
  Tritiated thymidine incorporation, % CPM above the control: ~18 % CPM above the control

## C[C@]12CC[C@H](O)CC1=CC[C@@H]1[C@@H]2CC[C@]2(C)C(=O)CC[C@@H]12 [DHEA, 3β-hydroxy-5-androstene-17-one, reference compound]
[8]
  Elastin content of the skin (mean): 1.753 μg Elastin per mg Skin Fat Fre
Skin of treated rats
  Dermal layer of control skin (FIGS. 2A and B) compared to treated skin (FIGS. 2C and D): thin compared to the thickness of the dermal layers in FIGS. 2C and D
[5]
  Reduction of luminol light emission: 20%
[6]
  Collagen decrease: 16%
[7]
  Elastin contents increased by: 28%

## Valine-Glycine-Valine-Hydroxy-proline-Glycine [SEQ ID 23]
RFL-6 cells [4]
  % Change of Green Fluorescence Intensity: 57%

## Acetyl-VVPQ (Ac-VVPQ; listed as Homo sapiens) [SEQ ID 43]
RFL-6 cells [3]
  Tritiated thymidine incorporation, % CPM above the control: ~1 % CPM above the control

## Alanine-Alanine-Alanine-Glutamine-Alanine (AAAQA; listed as Homo sapiens) [SEQ ID 22]
RFL-6 cells [4]
  % Change of Green Fluorescence Intensity: 20%

## C[C@]12CC[C@H](O)C[C@@H]1CC(O)[C@@H]1[C@@H]2CC[C@]2(C)C(=O)CC[C@@H]12 (some centres unmarked) [7-hydroxy isoandrosterone]
Rat skin
  Outer (keratin) layer and vascularity of the inner layer: no change in the outer (keratin) layer nor increase of vascularity of the inner layer
  Thickness of the dermal layer of skin: thickened to nearly twice that of the untreated controls
[5]
  Reduction of luminol light emission: 15%
[6]
  Collagen increased by: 24%
[7]
  Elastin contents increased by: 30%
